In one assay the target is T1, Thromboxane A2 receptor (Homo sapiens, UniProt P21731).
T1 sequence (P21731 whole entry): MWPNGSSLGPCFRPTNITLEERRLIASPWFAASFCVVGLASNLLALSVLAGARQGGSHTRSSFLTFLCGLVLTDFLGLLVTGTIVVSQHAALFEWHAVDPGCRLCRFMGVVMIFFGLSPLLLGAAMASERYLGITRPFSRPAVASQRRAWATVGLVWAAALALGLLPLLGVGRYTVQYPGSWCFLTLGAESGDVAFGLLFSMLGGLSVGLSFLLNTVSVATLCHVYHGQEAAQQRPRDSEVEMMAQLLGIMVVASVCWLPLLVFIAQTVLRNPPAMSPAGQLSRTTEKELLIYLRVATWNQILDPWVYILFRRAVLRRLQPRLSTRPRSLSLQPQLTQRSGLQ
Kind of assay: Antagonistic potency against Thromboxane A2 receptor expressed as inhibition of U 46619-induced platelet aggregation in human platelet rich plasma. It counts as functional. Particulars: read-out: pA2 (converted).

Another assay concerns the target T2, Thromboxane-A synthase (Homo sapiens, UniProt P24557).
T2 sequence (P24557 whole entry): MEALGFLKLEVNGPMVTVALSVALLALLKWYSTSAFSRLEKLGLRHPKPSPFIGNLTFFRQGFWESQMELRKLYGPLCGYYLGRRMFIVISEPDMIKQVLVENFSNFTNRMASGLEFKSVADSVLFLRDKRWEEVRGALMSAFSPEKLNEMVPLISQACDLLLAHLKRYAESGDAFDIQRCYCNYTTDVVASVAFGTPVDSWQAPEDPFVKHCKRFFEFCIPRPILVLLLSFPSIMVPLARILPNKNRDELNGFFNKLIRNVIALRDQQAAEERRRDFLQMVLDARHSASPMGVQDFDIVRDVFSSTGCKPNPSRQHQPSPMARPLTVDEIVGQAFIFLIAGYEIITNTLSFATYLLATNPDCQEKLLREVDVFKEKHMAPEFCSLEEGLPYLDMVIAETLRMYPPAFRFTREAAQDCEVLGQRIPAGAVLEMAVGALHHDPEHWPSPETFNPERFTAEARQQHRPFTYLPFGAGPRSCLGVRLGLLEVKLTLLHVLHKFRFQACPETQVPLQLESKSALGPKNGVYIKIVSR
Description: Inhibition of human Thromboxane A2 synthase.

Assay [1] concerns Canis familiaris. Description: Compound was tested in vivo for inhibition of serum TXB2 formation in conscious dog at a oral dose of 1 mg/kg. The class given is functional. Conditions: Canis lupus familiaris.
Assay [2] concerns Canis familiaris. Kind of assay: Compound was tested in vivo for blockade of U 46619-induced platelet aggregation in conscious dog at a oral dose of 1 mg/kg; Expressed as Concentration ratio. It counts as functional, Canis lupus familiaris.

Each structure is given as a SMILES string.

The source of these data is ChEMBL document CHEMBL1126340, “Dual-acting thromboxane receptor antagonist/synthase inhibitors: heterocyclic variations” (Bioorg Med Chem Lett, 1992).

As usually defined, the IC50 is the point on the concentration scale where inhibition reaches its midpoint. A lower IC50 goes with greater potency. As for `Cc1ccc(OC(C)(C)[C@H]2OC[C@@H](C/C=C\CCC(=O)O)[C@@H](c3cncn3C)O2)c([N+](=O)[O-])c1`, the Kb on Thromboxane A2 receptor was 0.00398 µM. At Thromboxane-A synthase, the IC50 is 0.05 µM.
`CC1(C)OC[C@@H](C/C=C\CCC(=O)O)[C@@H](c2cccnc2)O1` registered an IC50 at Thromboxane-A synthase of 0.12 µM.
Still for that read-out and setting: under `Cn1cncc1[C@H]1OC(C)(C)OC[C@H]1C/C=C\CCC(=O)O` stands 0.07 µM; under `CC1(C)OC[C@@H](C/C=C\CCC(=O)O)[C@@H](c2cccs2)O1`, 4.1 µM.
Turning to `CCCCCCn1cncc1[C@H]1O[C@@H](C(C)(C)Oc2ccc(C)cc2[N+](=O)[O-])OC[C@H]1C/C=C\CCC(=O)O`, the Kb on Thromboxane A2 receptor is 0.2 µM. For the same compound, half-maximal inhibition on Thromboxane-A synthase (IC50) was put at 0.49 µM.
At Thromboxane-A synthase, `CC1(C)OC[C@@H](C/C=C\CCC(=O)O)[C@@H](c2ccnnc2)O1` displayed an IC50 of 7.4 µM.
Compound `CC1(C)OC[C@@H](C/C=C\CCC(=O)O)[C@@H](c2cncs2)O1` gave an IC50 against Thromboxane-A synthase of 0.08 µM. This IC50 is about 92-fold lower than that of the compound before.
`CC1(C)OC[C@@H](C/C=C\CCC(=O)O)[C@@H](c2cnco2)O1`: the IC50 against Thromboxane-A synthase was above 10 µM.
As a reminder, the inhibition in vivo is the relative decrease from the control value, in per cent. A lower inhibition in vivo goes with a response near the control. For `Cc1ccc(OC(C)(C)[C@H]2OC[C@@H](C/C=C\CCC(=O)O)[C@@H](c3cncs3)O2)c([N+](=O)[O-])c1`, testing at 1 mg/kg in the assay with Canis familiaris [1] gave an inhibition in vivo of 60%. Further, the Kb on Thromboxane A2 receptor is 0.00501 µM. Also, on Thromboxane-A synthase, the IC50 came to 0.018 µM. Also, the Activity with Canis familiaris [2] was above 50.
Turning to `Cc1ccc(OC(C)(C)[C@H]2OC[C@@H](C/C=C\CCC(=O)O)[C@@H](c3cccnc3)O2)c([N+](=O)[O-])c1`, at Thromboxane A2 receptor, the Kb is 0.00398 µM. The IC50 against Thromboxane-A synthase came to 0.019 µM.
For `CC1(C)OC[C@@H](C/C=C\CCC(=O)O)[C@@H](c2cnccn2)O1`, at Thromboxane-A synthase, the IC50 is above 10 µM.
On the same count and under the same terms, with `CCCCCCn1cncc1[C@H]1OC(C)(C)OC[C@H]1C/C=C\CCC(=O)O` the figure was 0.9 µM.
On the same count and under the same terms, under `CC1(C)OC[C@@H](C/C=C\CCC(=O)O)[C@@H](c2cncnc2)O1` stands above 10 µM.
